Results taken from ChEMBL document CHEMBL1201862, “PubChem BioAssay data set” (2004).
Activity calls are given as the source filed them.

Tests used:
[1] = molecular target: NAD-dependent protein deacylase sirtuin-5, mitochondrial (Homo sapiens, UniProt Q9NXA8); assay: SIRT5 desuccinylase inhibitors, dose response, biochemical, fluorescence imaging, cherry-pick, set 5 (AID 720591);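 further: desuccinylation of succinyl peptide AMC substrate read as fluorescence after trypsin release; potency of inhibitors that lower fluorescence and may act on trypsin instead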
Sequence of NAD-dependent protein deacylase sirtuin-5, mitochondrial (Q9NXA8 whole entry): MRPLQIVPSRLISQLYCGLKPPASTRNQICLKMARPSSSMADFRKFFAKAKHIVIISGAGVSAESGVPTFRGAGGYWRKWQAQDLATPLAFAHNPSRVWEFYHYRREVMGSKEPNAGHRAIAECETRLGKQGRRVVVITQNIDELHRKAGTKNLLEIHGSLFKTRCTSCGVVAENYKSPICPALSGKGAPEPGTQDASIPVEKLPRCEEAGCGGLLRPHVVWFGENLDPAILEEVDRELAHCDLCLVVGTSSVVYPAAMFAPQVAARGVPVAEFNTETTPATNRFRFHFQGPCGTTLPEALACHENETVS

[2] = molecular target: FAD-linked sulfhydryl oxidase ALR (Homo sapiens, UniProt P55789); assay: inhibitors of human ALR sulfhydryl oxidase, dose response, biochemical, H2O2 detection, luminescence, cherry-pick (AID 493248)
Sequence of FAD-linked sulfhydryl oxidase ALR (P55789 whole entry, the tested form may be a part): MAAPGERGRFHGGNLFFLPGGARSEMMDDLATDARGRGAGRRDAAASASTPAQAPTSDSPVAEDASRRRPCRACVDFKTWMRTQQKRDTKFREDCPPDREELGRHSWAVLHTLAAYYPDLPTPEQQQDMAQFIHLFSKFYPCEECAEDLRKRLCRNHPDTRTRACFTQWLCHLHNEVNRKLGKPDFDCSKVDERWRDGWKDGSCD

[3] = molecular target: T1, Sentrin-specific protease 1 (Homo sapiens, UniProt Q9P0U3); assay: Dose response confirmation of small molecule inhibitors of the catalytic domain of the SUMO protease, SENP1 in a FRET assay.; assay type: functional; conditions: read-out: IC50_Mean
T1 sequence (Q9P0U3 whole entry): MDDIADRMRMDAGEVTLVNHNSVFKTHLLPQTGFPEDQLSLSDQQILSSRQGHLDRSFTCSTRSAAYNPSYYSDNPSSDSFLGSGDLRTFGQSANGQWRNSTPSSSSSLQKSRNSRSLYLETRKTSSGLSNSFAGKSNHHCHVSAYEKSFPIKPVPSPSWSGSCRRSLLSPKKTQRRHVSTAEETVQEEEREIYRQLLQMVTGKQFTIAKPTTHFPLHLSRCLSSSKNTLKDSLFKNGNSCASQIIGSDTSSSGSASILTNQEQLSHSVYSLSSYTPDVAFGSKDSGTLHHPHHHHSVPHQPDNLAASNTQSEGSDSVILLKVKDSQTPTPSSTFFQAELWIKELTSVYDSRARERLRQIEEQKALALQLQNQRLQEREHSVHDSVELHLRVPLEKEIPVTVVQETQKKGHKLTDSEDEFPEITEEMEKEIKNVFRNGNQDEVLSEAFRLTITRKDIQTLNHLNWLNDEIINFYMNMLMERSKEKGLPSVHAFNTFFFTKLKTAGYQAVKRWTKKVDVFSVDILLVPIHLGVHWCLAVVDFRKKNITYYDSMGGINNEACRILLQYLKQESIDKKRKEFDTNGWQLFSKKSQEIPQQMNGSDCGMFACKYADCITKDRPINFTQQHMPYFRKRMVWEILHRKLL

[4] = molecular target: T1, Sentrin-specific protease 1; assay: potency of human SENP1 inhibitors, dose response, biochemical, kinetic FRET (AID 651697); assay type: functional; conditions: read-out: IC50_Mean
[5] = molecular target: T2, Long-chain-fatty-acid--AMP ligase FadD28 (Mycobacterium tuberculosis, UniProt P9WQ59); assay: Fluorescence polarization aasay to screen for inhibitors that compete for the binding of FadD28 to a bisubstrate Measured in Biochemical System Using Plate Reader - 2147-01_Inhibitor_Dose_CherryPick_Activity.; assay type: functional, Mycobacterium tuberculosis H37Rv
T2 sequence (P9WQ59 whole entry): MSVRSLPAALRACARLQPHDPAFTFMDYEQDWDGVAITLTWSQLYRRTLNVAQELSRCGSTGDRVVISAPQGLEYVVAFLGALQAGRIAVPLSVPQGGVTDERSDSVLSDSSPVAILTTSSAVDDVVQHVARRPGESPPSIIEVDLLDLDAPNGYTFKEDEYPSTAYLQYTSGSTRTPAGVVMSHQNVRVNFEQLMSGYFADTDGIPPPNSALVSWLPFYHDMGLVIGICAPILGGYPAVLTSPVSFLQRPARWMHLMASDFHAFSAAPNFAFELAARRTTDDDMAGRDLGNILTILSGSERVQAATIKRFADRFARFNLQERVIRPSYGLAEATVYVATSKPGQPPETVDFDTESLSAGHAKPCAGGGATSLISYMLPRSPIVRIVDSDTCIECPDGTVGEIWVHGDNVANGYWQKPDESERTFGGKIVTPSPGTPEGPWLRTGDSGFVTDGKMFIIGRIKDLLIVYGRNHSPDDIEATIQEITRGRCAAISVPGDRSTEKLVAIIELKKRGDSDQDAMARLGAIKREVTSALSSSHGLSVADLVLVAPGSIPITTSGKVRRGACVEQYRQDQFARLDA

Paired box protein Pax-8 = Paired box protein Pax-8 (Homo sapiens, UniProt Q06710); assay: inhibitors of PAX8-driven TPO luciferase reporter, dose response, RMG-I cells, cherry-pick (AID 687027); assay type: functional, cell-based;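 further: luciferase reporter driven by Pax8 target thyroperoxidase promoter measured by SteadyGlo luminescence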
Sequence of Paired box protein Pax-8 (Q06710 whole entry): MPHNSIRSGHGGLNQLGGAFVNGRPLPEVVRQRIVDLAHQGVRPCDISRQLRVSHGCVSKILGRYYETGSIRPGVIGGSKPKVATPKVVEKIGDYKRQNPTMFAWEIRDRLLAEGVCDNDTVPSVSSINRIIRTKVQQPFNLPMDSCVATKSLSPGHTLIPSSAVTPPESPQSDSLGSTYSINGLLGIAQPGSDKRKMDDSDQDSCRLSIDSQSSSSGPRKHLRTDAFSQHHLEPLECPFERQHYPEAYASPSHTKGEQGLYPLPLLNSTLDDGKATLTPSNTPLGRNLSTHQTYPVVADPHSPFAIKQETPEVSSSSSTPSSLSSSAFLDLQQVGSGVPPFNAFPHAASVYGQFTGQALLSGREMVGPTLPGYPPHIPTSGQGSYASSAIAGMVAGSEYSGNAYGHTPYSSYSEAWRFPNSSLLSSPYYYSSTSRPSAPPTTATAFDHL

[6] = non-specific cell cytotoxicity, dose response, cytotoxicity control for PAX8 inhibitor project, plate reader, dry powder samples (AID 743021); assay type: functional, cell-based
[7] = NIH:OVCAR-3 ovarian cancer cell cytotoxicity, dose response, PAX8 inhibitor project, plate reader, dry powder samples (AID 743044); assay type: functional, cell-based
[8] = cytotoxicity in OVCAR8 ovarian cancer cells, dose response, PAX8 project, cell-based, plate reader, dry powder samples (AID 743197); assay type: functional; conditions: OVCAR-8
Kallikrein-7 = Kallikrein-7 (Homo sapiens, UniProt P49862); assay: Fluorescence Intensity-based biochemical primary high throughput dose response assay to identify activators of kallikrein-7 (K7) zymogen.
Sequence of Kallikrein-7 (P49862 whole entry): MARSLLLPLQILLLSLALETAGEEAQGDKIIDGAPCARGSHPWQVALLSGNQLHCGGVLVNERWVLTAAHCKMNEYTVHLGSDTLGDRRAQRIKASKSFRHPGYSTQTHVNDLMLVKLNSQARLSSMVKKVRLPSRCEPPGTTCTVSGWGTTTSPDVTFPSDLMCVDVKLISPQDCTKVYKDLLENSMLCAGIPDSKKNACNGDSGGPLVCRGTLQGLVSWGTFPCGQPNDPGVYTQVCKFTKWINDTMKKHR

[9] = HepG2 cell cytotoxicity, dose response, cytotoxicity control, cherry-picked samples (AID 1159577); assay type: functional, cell-based
[10] = P. falciparum Dd2 growth inhibitors, dose response, SYBR Green, cherry-picked samples (AID 1159567); assay type: functional, cell-based
[11] = molecular target: T3, Trace amine-associated receptor 1 (Homo sapiens, UniProt Q96RJ0); assay: Counterscreen for agonists of the human trace amine associated receptor 1 (hTAAR1): Fluorescence-based cell-based high throughput dose response assay to identify hTAAR1 agonist that also desensitize TAAR1 receptor response.; assay type: functional
T3 sequence (Q96RJ0 whole entry): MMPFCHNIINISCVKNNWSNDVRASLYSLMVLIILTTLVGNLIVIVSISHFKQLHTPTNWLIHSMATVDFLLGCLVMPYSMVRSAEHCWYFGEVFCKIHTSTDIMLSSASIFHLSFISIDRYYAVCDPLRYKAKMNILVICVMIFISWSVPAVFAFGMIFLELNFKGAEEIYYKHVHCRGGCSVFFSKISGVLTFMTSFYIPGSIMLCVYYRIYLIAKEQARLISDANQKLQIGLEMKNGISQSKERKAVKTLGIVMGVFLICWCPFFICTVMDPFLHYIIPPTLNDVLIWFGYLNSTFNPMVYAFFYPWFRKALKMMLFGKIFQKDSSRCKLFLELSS

cells [12] = assay type: functional, cell-based
[13] = molecular target: T3, Trace amine-associated receptor 1; assay: Fluorescence-based cell-based high throughput dose response assay to identify agonists of the human trace amine associated receptor 1 (TAAR1).; assay type: functional
cells [14] = assay type: functional, cell-based; remark: listed apart in the source
[15] = molecular target: T4, Tyrosyl-DNA phosphodiesterase 2 (Homo sapiens, UniProt O95551); assay: human TDP2 enzyme inhibitors, dose response, biochemical, epi absorbance, IC50 (AID 743297)
T4 sequence (O95551 whole entry): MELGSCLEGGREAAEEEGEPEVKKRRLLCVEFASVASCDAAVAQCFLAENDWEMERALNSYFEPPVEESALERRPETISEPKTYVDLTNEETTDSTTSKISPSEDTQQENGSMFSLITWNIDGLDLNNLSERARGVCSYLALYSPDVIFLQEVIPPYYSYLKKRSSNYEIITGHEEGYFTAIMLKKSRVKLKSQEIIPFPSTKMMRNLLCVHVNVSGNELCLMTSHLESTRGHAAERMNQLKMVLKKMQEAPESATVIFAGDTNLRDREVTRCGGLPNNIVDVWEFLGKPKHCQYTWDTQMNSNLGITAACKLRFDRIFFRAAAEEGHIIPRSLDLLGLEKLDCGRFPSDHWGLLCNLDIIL

With CCC1CN(C(=O)N2CCC(C(=O)Nc3ccccc3F)CC2)c2ccccc2O1 (centres undefined) the AC50 [1] was > 30 µM (inactive).

In the case of COc1cc(/C=C2/SC(=S)N(CC(=O)O)C2=O)ccc1OC(=O)c1ccco1, the AC50 [2] was 3.74 µM (active), the IC50 [3] was 5.86 µM (active) and the IC50 [4] was 4.75 µM (active).

For O=C1NNC(=O)C1c1ccccc1, the AC50 [1] was > 30 µM (inactive).

With Cc1ccc(NC(=O)CNc2ccccc2N2CCCC2=O)cc1S(=O)(=O)N1CCOCC1 the AC50 [5] was 21.8 µM (active).

In the case of C[C@@H]1CN([C@@H](C)CO)C(=O)Cc2cc(NC(=O)CCCCCC(=O)Nc3ccccc3N)ccc2O[C@@H]1CN(C)Cc1ccc(C(F)(F)F)cc1, the AC50 (Paired box protein Pax-8) was 6.87 µM (active), the AC50 [6] was 45.4 µM (active) and the AC50 [7] was 30.1 µM (active). For the same molecule, the AC50 [8] was 18 µM (active).

In the case of CCCCCn1nnnc1-c1nc2cc3ccccc3cc2nc1O, the IC50 [3] was 1.29 µM (active) and the IC50 [4] was 4.94 µM (active).

In the case of O=C(Nc1ccc2[nH]c(O)nc2c1)c1c(F)c(F)c(F)c(F)c1F, the EC50 (Kallikrein-7) was 22.9 µM (inactive).

For N#Cc1ccc(-c2ccc([C@@H]3[C@@H]4CN(C(=O)Nc5ccc(C(F)(F)F)cc5)C[C@H]3N4)cc2)cc1, the AC50 [9] was 20.5 µM (active) and the AC50 [10] was 5.94 µM (active).

With c1ccc2c(c1)CC1CNCc3cccc(c31)S2 (centres undefined) the IC50 [11] was 7.1 µM (active), the EC50 (cells [12]) was > 29.9 µM (inactive) and the EC50 [13] was 5.87 µM (active). For the same molecule, the IC50 (cells [14]) was > 29.9 µM (inactive).

For CC/C(=N\CCc1ccccc1)C1=C(O)CCC1=O, the IC50 [11] was 2.34 µM (active), the EC50 (cells [12]) was > 29.9 µM (inactive) and the EC50 [13] was 0.351 µM (active). The IC50 (cells [14]) was > 29.9 µM (inactive).

For CCCCn1c(NC(=O)c2ccc(Br)o2)c(C(=O)OCC)c2nc3ccccc3nc21, the IC50 [15] was > 128 µM (inactive).
